For one assay, the target named is T1, transthyretin (wt-TTR) (Homo sapiens, UniProt P02766).
T1 construct: recombinant wt-TTR, homotetramer
Put plainly: ligand fluorescence titration (blue shift of OleA emission, fitted to a binding equilibrium); urea unfolding shows stabilization.

For a further assay, the target named is T2, transthyretin (L55P-TTR) (Homo sapiens, UniProt P02766, L75P).
T2 construct: recombinant L55P-TTR, homotetramer
Put plainly: ligand fluorescence titration (blue shift of OleA emission); noisier, and no stabilization in urea unfolding. It counts as binding.

These results are taken from paper PMC8953266, “The Transthyretin/Oleuropein Aglycone Complex: A New Tool against TTR Amyloidosis” (Pharmaceuticals, 2022).

For orientation: Kd means the equilibrium constant for the complex coming apart. For the compound `C/C=C1/C(O)OC=C(C(=O)OC)[C@H]1CC(=O)OCCc1ccc(O)c(O)c1` (mixture of isomers) [OleA, oleuropein aglycone], the dissociation constant (Kd) worked out at 3.23 ± 0.32 µM on transthyretin (wt-TTR) and 3.12 ± 0.62 µM on transthyretin (L55P-TTR).
